Drawing on PubChem BioAssay AID179 (DTP/NCI, 2004), this text covers EC50, IC50 and outcome for 70 molecules.

The subject of the assay is CEM cells HIV-1 protection, formazan growth assay. The assay can be described thus: NCI AIDS Antiviral Assay. Particulars: for IC50: measured here: growth of uninfected CEM cells. The method in brief: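 Steps: treat uninfected and HIV-1-infected human CEM cells at five drug levels; quantify growth by soluble formazan; retest any compound reaching 50% protection; classify actives from the retest.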

Where “and” joins values, the source holds several entries; their conditions need not be identical. Equal values may be shown once. Calls of active or inactive are those of the source.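 Rule for the calls: active = compounds giving half or more protection of infected cells from virus-caused growth loss, again on retest; inactive = the rest.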

As for `O=C1c2cccc3cccc(c23)C(=O)N1NCCO`, the EC50 is more than 200 µM and the IC50 was determined as 162 µM. Take `O=c1ssc(=Nc2ccccc2)n1-c1ccccc1`: the 50% effective concentration (EC50) is more than 200 µM; the IC50 was 67.6 µM and 56.2 µM. Regarding `O=c1[nH]c(=O)n(C2C=CC(CO)O2)cc1F` (stereo not given), the EC50 is more than 200 µM and the IC50 is more than 200 µM.

In the case of `COC(=O)C1CCC(=O)N1C(c1cc(OC)c(OC)c(OC)c1)c1cccc2ccccc12` (stereo not given), the EC50 was more than 200 µM and the concentration for half-maximal inhibition (IC50) was 83.2 µM. For `O=C(/C=C(/SS/C(=C/C(=O)c1ccccc1)c1ccccc1)c1ccccc1)c1ccccc1`, the EC50 is more than 200 µM and the IC50 was 2.51 µM. The matching figures for `CC1(CO)OC(n2cnc3cncnc32)CC1O` (stereo not given): 18.2 µM and more than 200 µM. As to `Cc1ccc2c(=O)c3cccc(CC(=O)O)c3[nH]c2c1C`, the EC50 is more than 200 µM and the IC50 stood at 47.9 µM. As to `N#CCN1C(=O)c2cc([N+](=O)[O-])cc3cc([N+](=O)[O-])cc(c23)C1=O`, the result was inactive. On to `O=C(C(O)c1cn(Cc2ccccc2)c2ccccc12)N1CCCCC1` (stereo not given), for which the result was inactive. As to `FC(F)(F)c1ccc2c(c1)N(CCCN1CCN(C3CC3)CC1)c1ccccc1S2`, the EC50 is more than 200 µM and the IC50 stood at 33.1 µM. The matching figures for `O=C(Cc1nc2ccccc2c(=O)n1-c1c(Cl)cccc1Cl)c1ccncc1`: more than 12.6 µM and more than 12.6 µM. The matching figures for `CC(C)(C)[Si](C)(C)Oc1cc(CO)cc2c1cc(=N)o[n+]2[O-]`: more than 200 µM and 10.2 µM. `CC(=O)OC(=C(C#N)C#N)c1nccnc1C(=O)O`: the EC50 was more than 200 µM and the IC50 was more than 200 µM.

In the case of `Cc1cn(COCCS(=O)c2ccccc2)c(=O)[nH]c1=O` (stereo not given), the EC50 was more than 200 µM and the IC50 is more than 200 µM.

As for `Cc1cc(=O)[nH]c(NN2C(Cl)C(=O)C2c2ccco2)n1` (stereo not given), the EC50 is more than 17.8 µM and the IC50 was more than 17.8 µM. On to `COc1ccc(C(=O)/C=C/c2ccc(OCCCCCCCCCCOc3ccc(/C=C/C(=O)c4ccc(OC)c(OC)c4)cc3)cc2)c(OC)c1`, for which the result was inactive.

As to `O=c1cn[nH]c2c(F)cccc12`, the EC50 was more than 646 µM and the half-maximal inhibitory concentration (IC50) was 617 µM. As to `COc1ccccc1C12OC(=O)C1(C)Oc1ccccc1C2=O` (stereo not given), the outcome was inactive.

As to `N#Cc1c(C#N)c(-c2ccco2)n(/N=C/c2ccco2)c1N`, the EC50 was more than 200 µM and the IC50 was more than 200 µM.

On to `Oc1ccc(Br)cc1C=Nc1c(NC2CCCCC2)oc2ccc(Br)cc12`, for which the result was inactive. For the molecule `Clc1ccc(SC(/C=C/NNC2=NC(c3ccccc3)C(c3ccccc3)=NN2)c2ccccc2)cc1` (stereo not given), the EC50 was more than 7.24 µM and the IC50 stood at 5.62 µM. The matching figures for `Cc1ccc(/C(O)=C/c2nc3ccccc3nc2NC23CC4CC(CC(C4)C2)C3)cc1`: more than 200 µM and more than 200 µM. On to `CC1=Nc2ccccc2NC2(C1)C(C1COC(C)(C)O1)OC1OC(C)(C)OC12` (stereo not given), for which the result was inactive.

Regarding `C=CCOCn1cnc2c(N)ncnc21`, the result was inactive.

As to `O=C(NC(Cc1c[nH]c2ccccc12)C(=O)O)/C(=C/c1ccccc1)NC(=O)c1ccccc1` (stereo not given), the EC50 is more than 200 µM and the IC50 was determined as 135 µM. The matching figures for `[N-]=[N+]=NC1(Cc2ccccc2)C(=O)Nc2ccccc2C1=O` (stereo not given): more than 200 µM and 105 µM. The matching figures for `CN(C)c1cccc2c1C(=O)C=CC21CCc2ccc(N(C)C)c3c(N(C)C)ccc1c23` (stereo not given): more than 200 µM and 8.71 µM. In the same order, the values of `C1CN2CN1CN1CCN(C1)C2` are more than 200 µM and 22.9 µM.

For the molecule `CCCCCCCCSc1ncnc2[nH]ncc12`, the EC50 is more than 79.4 µM and the 50% inhibitory concentration (IC50) was found to be 8.51 µM. The matching figures for `Oc1ccccc1/C=N\NC(=S)Nc1ccc2cn[nH]c2c1`: more than 200 µM and 126 µM. The matching figures for `C=C1CC2CCCC12C=O` (stereo not given): more than 263 µM and 145 µM. In the same order, the values of `O=[N+]([O-])c1cc(NN=C(c2ccccc2)c2ccccc2)cc([N+](=O)[O-])c1` are more than 3.98 µM and more than 3.98 µM.

On to `CN(C)P(CCPc1ccccc1)N(C)C` (stereo not given), for which the EC50 is more than 977 µM and the 50% inhibitory concentration (IC50) is more than 977 µM.

For the molecule `CC(=O)Oc1cc2c(cc1OC(C)=O)[C@H]1CC[C@]3(C)[C@@H](OC(C)=O)CC[C@H]3[C@@H]1CC2`, the EC50 was more than 200 µM and the half-inhibitory concentration (IC50) was found to be 10 µM. In the same order, the values of `COc1cc2c(cc1OC)C(=O)/C(=C/c1ccc(N(C)C)cc1)CC2` are more than 155 µM and 110 µM. In the same order, the values of `O=C(Nc1ccc(Br)cc1)c1cc(Br)ccc1O` are more than 200 µM and 4.37 µM. As for `CC(=O)OCC1OC(OC2C(CSC3OC(COC(C)=O)C(OC(C)=O)C(OC(C)=O)C3OC(C)=O)OC(OC(C)=O)C(OC(C)=O)C2OC(C)=O)C(OC(C)=O)C(OC(C)=O)C1OC(C)=O` (stereo not given), the EC50 was more than 36.3 µM and the IC50 was more than 36.3 µM.

Turning to `N#Cc1nc(C2CCC2)oc1N`, the EC50 is more than 200 µM and the IC50 was more than 200 µM. Regarding `COc1ccc(C(=O)/C=C/c2ccc(OCCSCCCCCCCCCCSCCOc3ccc(/C=C/C(=O)c4ccc(OC)cc4)cc3)cc2)cc1`, the EC50 is more than 200 µM and the IC50 was more than 200 µM.

Regarding `COC(=O)CC(SCCO)SCCO`, the EC50 was more than 200 µM and the IC50 is more than 200 µM. In the case of `[N-]=[N+]=NC1(c2ccccc2)C(=O)c2cccc3c4ccccc4n(c23)C1=O` (stereo not given), the EC50 was more than 200 µM and the half-inhibitory concentration (IC50) was more than 200 µM.

Molecule `O=C(O)c1ccccc1-c1c2cc(I)c(=O)c(I)c-2oc2c(I)c(O)c(I)cc12` returned a concentration giving a half-maximal response (EC50) of more than 58.9 µM and an IC50 of 10.7 µM. Consider `Nc1[nH]c(=S)nc2nc3c(c(-c4ccccc4)c12)CCCC3`, for which the EC50 is more than 50.1 µM and the IC50 was more than 50.1 µM. On to `COc1ccc(/C=C2\N=C3N(Cc4ccccc4)C=C(N)N3C2=O)cc1`, for which the EC50 was more than 200 µM and the IC50 was more than 200 µM. On to `Cc1ccc(C[N+](C)(C)c2ccccc2)o1`, for which the EC50 is more than 724 µM and the 50% inhibitory concentration (IC50) worked out at 102 µM. The matching figures for `CC(=O)/C(=C/c1ccc(C#N)cc1)C(=O)c1ccccc1`: more than 95.5 µM and 16.6 µM. `Nc1c(S(=O)(=O)O)cc2cc(S(=O)(=O)O)ccc2c1N=Nc1ccc(-c2ccc(N=Nc3c(N)c(S(=O)(=O)O)cc4cc(S(=O)(=O)O)ccc34)c(S(=O)(=O)O)c2)cc1`: the outcome was active. Still for that read-out and setting: to `COC(=O)C1Cc2c([nH]c3ccccc23)C(c2ccccc2O)N1` (stereo not given) belongs “inactive”. Take `OCC1OC(n2nc(-c3ccccc3)nc2-c2cnccn2)C(O)C(O)C1O` (stereo not given): the EC50 is more than 200 µM and the IC50 was more than 200 µM. Regarding `COc1ccc(N=C2C(=Nc3ccc(OC)cc3)N(S(=O)(=O)c3ccccc3)C(=S)N2c2ccccc2)cc1`, the EC50 was more than 200 µM and the IC50 is more than 200 µM. Consider `O=c1n(-c2ccccc2)c(=O)n(-c2ccccc2)c(=O)n1-c1ccccc1`, for which the EC50 was more than 200 µM and the IC50 is more than 200 µM. Consider `CCOC(=O)Nc1cc2nnc(-c3ccccc3)nc2c(N)n1`, for which the result was inactive. On to `Cc1cn(C(Cc2ccccc2)OCCO)c(=O)[nH]c1=O` (stereo not given), for which the EC50 is more than 200 µM and the IC50 is more than 200 µM.

For `O=C1CC2(CCC(O)(c3ccc4ccccc4c3)C(C(=O)c3ccc4ccccc4c3)C2)C(=O)c2ccccc2N1` (stereo not given), the EC50 was more than 200 µM and the half-maximal inhibitory concentration (IC50) came to 83.2 µM. The matching figures for `CC(=O)OCC(c1ccccc1)N1C(=O)C(OC(C)=O)[C@H](OC(C)=O)C1=O` (stereo not given in full): more than 661 µM and more than 661 µM. In the same order, the values of `O=C1/C(=C/c2cccc3ccccc23)CCc2ccc([N+](=O)[O-])cc21` are more than 200 µM and 47.9 µM. In the case of `COC(=O)C(c1ccc(OC)cc1)N1C(=O)[C@@H](NC(=O)c2ccccc2)[C@H]1[C@@H](C)O` (stereo not given in full), the EC50 is more than 200 µM and the half-inhibitory concentration (IC50) is more than 200 µM. As to `COC(=O)c1ccc(NCc2c(O)ccc(O)c2Br)cc1Cl`, the EC50 is more than 14.8 µM and the IC50 came to 6.46 µM. For `CCOC(=O)CCCNC(=O)CCCCC(=O)N(C)C`, the EC50 was more than 200 µM and the 50% inhibitory concentration (IC50) is more than 200 µM. Consider `Cc1ccc2nc(NC(=S)SSC(=S)Nc3nc4ccc(C)cc4s3)sc2c1`, for which the EC50 was more than 200 µM and the IC50 came to 0.537 µM. In the same order, the values of `COC(=O)/C=C/c1ccc2c(c1)CCC2` are more than 200 µM and 6.92 µM. The matching figures for `N#Cc1ccc(N=NN2CCCC2)cc1`: more than 200 µM and 17.8 µM. The matching figures for `CC(=O)Nc1ccc(/C=C/C(=O)c2sc(-n3nc(-c4ccccc4)cc3-c3ccccc3)nc2C)cc1`: more than 20 µM and 17 µM. In the case of `CCOC(=O)CN1C(=O)C(=O)N(c2ccc(OC)c3ccccc23)C1=O`, the EC50 was more than 200 µM and the IC50 is more than 200 µM. With `Cc1ccc(S(=O)(=O)N(CCN2C(=O)c3ccccc3C2=O)c2cc3c4c(c2)Oc2cc(N(CCN5C(=O)c6ccccc6C5=O)S(=O)(=O)c5ccc(C)cc5)cc5c2C4(C)c2c(cc(N(CCN4C(=O)c6ccccc6C4=O)S(=O)(=O)c4ccc(C)cc4)cc2O5)O3)cc1`, the EC50 was more than 100 µM and the IC50 came out at 64.6 µM. In the same order, the values of `O=C(N=C1[Se]C(=Nc2ccccc2)C(=Nc2ccccc2)N1c1ccccc1)c1ccc([N+](=O)[O-])cc1` are more than 200 µM and more than 200 µM. In the same order, the values of `Cc1ccc(/C=C/C(=O)Oc2ccc(/C=C3\CCC/C(=C\c4ccc(OC(=O)/C=C/c5ccc(C)cc5)cc4)C3=O)cc2)cc1` are more than 100 µM and more than 100 µM. Consider `COc1ccc(SS(=O)(=O)c2ccc(OC)cc2)cc1`, for which the EC50 was more than 56.2 µM and the half-maximal inhibitory concentration (IC50) came to 5.25 µM. As for `Cc1ccc(C[N+](C)(C)N)cc1C`, the EC50 was more than 200 µM and the IC50 was more than 200 µM.

As for `O=C(O)c1cc2ccccc2c(N=Nc2ccc(S(=O)(=O)Nc3nccs3)cc2)c1O`, the EC50 was more than 200 µM and the IC50 was found to be 155 µM.

In general, EC50 refers to the concentration needed to bring the measured effect to its halfway point. By IC50 is commonly meant the concentration needed to halve the response being measured. High values mean a need for much substance, low ones inhibition by little substance.
